# B1: Antistasin: a potent inhibitor of blood coagulation factor Xa from the Mexican leech, Haementeria officinalis (protein, UniProt P15358 18-136, looked up)
# Antistasin: QGPFGPGCEEAGCPEGSACNIITDRCTCSGVRCRMHCPHGFQRSRYGCEFCKCRLEPMKATCDISECPEGMMCSRLTNKCDCKIDINCRKTCPNGLKRDKLGCEYCECRPKRKLIPRLS
# Biological target: T1, human factor Xa (Homo sapiens, UniProt P00742)
# T1 construct: purchased Enzyme Research Laboratories
# Test: Determination of Factor Xa IC50 (cleavage of fluorogenic substrate F-S2765)
# Assay type: biochemical
# Conditions: 3 pM human factor Xa; read-out: FXa 3 pM IC50
# Procedure: The ability of compounds to act as inhibitors of human factor Xa catalytic activity was assessed by determination of that concentration of test substance that inhibited by 50% (IC50) the ability of human factor Xa to cleave the fluorogenic substrate F-S2765 (N-α-Z-D-Arg-Gly-Arg-pNA HCl, California Peptide Research). […] The IC50 was determined at 3 pM and/or 30 pM concentrations of human factor Xa (Enzyme Research Laboratories). These concentrations were achieved by diluting a stock solution of human factor Xa in the appropriate amount of buffer containing 10 mM HEPES, 150 mM NaCl, and 0.1% BSA at pH 7.4 (HBSA buffer). Accordingly, 73 μL of the factor Xa/buffer solution was added to 2.5 μL of DMSO-reconstituted compound and incubated for 55 minutes at room temperature. After warming to 37° C. for am additional 5 minutes, 50 μL of rewarmed substrate was added and the IC50 determined by monitoring the increase in absorbance at 390 nm excitation/460 nm emission (455 nm cutoff) in a fluorometric plate reader or 30 minutes.
# T1 sequence (P00742 235-488 limits assumed): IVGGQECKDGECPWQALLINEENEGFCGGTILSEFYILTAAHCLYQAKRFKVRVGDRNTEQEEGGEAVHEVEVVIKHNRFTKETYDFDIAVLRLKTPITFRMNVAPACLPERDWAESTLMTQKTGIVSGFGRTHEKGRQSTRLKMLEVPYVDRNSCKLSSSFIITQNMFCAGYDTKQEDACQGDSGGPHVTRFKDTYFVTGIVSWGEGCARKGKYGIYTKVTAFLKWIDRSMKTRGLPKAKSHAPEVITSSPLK
# T1 sequence (P00742 41-179 partner limits assumed): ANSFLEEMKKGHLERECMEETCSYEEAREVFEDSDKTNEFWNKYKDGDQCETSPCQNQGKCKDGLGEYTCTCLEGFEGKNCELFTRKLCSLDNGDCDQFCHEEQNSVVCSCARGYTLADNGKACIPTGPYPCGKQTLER
row,Molecule,IC50
1,"CS(=O)(=O)c1ccccc1-c1ccc(NC(=O)C2(NC(=O)Nc3ccc(Cl)cc3)CCCCC2)cc1 [Example 10, 1-[3-(4-Chloro-phenyl)-ureido]-cyclohexanecarboxylic acid (2′-methanesulfonyl-biphenyl-4-yl)-amide]",16 nM
2,"CS(=O)(=O)c1ccccc1-c1ccc(NC(=O)C2(NC(=O)Nc3ccc(Cl)cc3)CC2)cc1 [Example 2, 1-[3-(4-Chloro-phenyl)-ureido]-cyclopropanecarboxylic acid (2′-methanesulfonyl-biphenyl-4-yl)-amide]",33 nM
3,"CS(=O)(=O)c1ccccc1-c1ccc(NC(=O)C2(NC(=O)Nc3ccc(Cl)cc3)CC2)c(F)c1 [Example 3, 1-[3-(4-Chloro-phenyl)-ureido]-cyclopropanecarboxylic acid (3-fluoro-2′-methanesulfonyl-biphenyl-4-yl)-amide]",22 nM
4,"CC(C)(NC(=O)Nc1ccc(Cl)cc1)C(=O)Nc1ccc(-c2ccccc2S(C)(=O)=O)cc1F [Example 7, 2-[3-(4-Chloro-phenyl)-ureido]-N-(3-fluoro-2′-methanesulfonyl-biphenyl-4-yl)-2-methyl-propionamide]",20 nM

# Same assay, conditions: 30 pM human factor Xa; compound @ 1 μM
row,Molecule,"FxXa 30 pM, % @ 1 μM"
1,"CN(C(=O)NCC(=O)Nc1ccc(-c2ccccc2S(C)(=O)=O)cc1F)c1ccc(Cl)cc1 [Example 13, 2-[3-(4-Chloro-phenyl)-3-methyl-ureido]-N-(3-fluoro-2′-methanesulfonyl-biphenyl-4-yl)-acetamide]",17% @ 1 μM
2,"CN(C)CCN(CC(=O)Nc1ccc(-c2ccccc2S(C)(=O)=O)cc1F)C(=O)Nc1ccc(Cl)cc1 [Example 26, 2-[3-(4-Chloro-phenyl)-1-(2-dimethylamino-ethyl)-ureido]-N-(3-fluoro-2′-methanesulfonyl-biphenyl-4-yl)-acetamide]",13.7% @ 1 μM
3,"CN(CC(=O)Nc1ccc(-c2ccccc2S(C)(=O)=O)cc1F)C(=O)N(C)c1ccc(Cl)cc1 [Example 14, 2-[3-(4-Chloro-phenyl)-1,3-dimethyl-ureido]-N-(3-fluoro-2′-methanesulfonyl-biphenyl-4-yl)-acetamide]",18% @ 1 μM
4,"CS(=O)(=O)c1ccccc1-c1ccc(NC(=O)CN(Cc2ccccc2)C(=O)Nc2ccc(Cl)cc2)c(F)c1 [Example 27, 2-[1-Benzyl-3-(4-chloro-phenyl)-ureido]-N-(3-fluoro-2′-methanesulfonyl-biphenyl-4-yl)-acetamide]",30% @ 1 μM

# Same assay, conditions: 30 pM human factor Xa; read-out: FxXa 30 pM IC50
row,Molecule,IC50
1,"NS(=O)(=O)c1ccccc1-c1ccc(NC(=O)C2(NC(=O)Nc3ccc(Cl)cc3)CC2)c(F)c1 [Example 5, 1-[3-(4-Chloro-phenyl)-ureido]-cyclopropanecarboxylic acid (3-fluoro-2′-sulfamoyl-biphenyl-4-yl)-amide]",36 nM
2,"COc1ccc(CN(CC(=O)Nc2ccc(-c3ccccc3S(C)(=O)=O)cc2F)C(=O)Nc2ccc(Cl)cc2)cc1 [Example 28, 2-[3-(4-Chloro-phenyl)-1-(4-methoxy-benzyl)ureido]-N-(3-fluoro-2′-methanesulfonyl-biphenyl-4-yl)-acetamide]",80 nM
3,"NS(=O)(=O)c1ccccc1-c1ccc(NC(=O)C2(NC(=O)Nc3ccc(Cl)cn3)CC2)c(F)c1 [Example 6, 1-[3-(5-Chloro-pyridin-2-yl)-ureido]-cyclopropanecarboxylic acid (3-fluoro-2′-sulfamoyl-biphenyl-4-yl)-amide]",192 nM
4,"CC(C)(NC(=O)Nc1ccc(Cl)cn1)C(=O)Nc1ccc(-c2ccccc2S(C)(=O)=O)cc1F [Example 8, 2-[3-(5-Chloro-pyridin-2-yl)-ureido]-N-(3-fluoro-2′-methanesulfonyl-biphenyl-4-yl)-2-methyl-propionamide]",287 nM
5,"O=C(Nc1ccc(Cl)cc1)N[C@@]1(C(=O)Nc2ccc(N3CCCCC3=O)cc2F)C[C@@H]1CO [Example 19, (1S,2S)-1-[3-(4-Chloro-phenyl)-ureido]-2-hydroxymethyl-cyclopropanecarboxylic acid [2-fluoro-4-(2-oxo-piperidin-1-yl)-phenyl]-amide]",129 nM
6,"NS(=O)(=O)c1ccccc1-c1ccc(NC(=O)C2(NC(=O)Nc3ccc(Cl)cc3)CCSCC2)c(F)c1 [Example 17, 4-[3-(4-Chloro-phenyl)-ureido]-tetrahydro-thiopyran-4-carboxylic acid (3-fluoro-2′-sulfamoyl-biphenyl-4-yl)-amide]",65 nM
7,"CS(=O)(=O)c1ccccc1-c1ccc(NC(=O)[C@]2(NC(=O)Nc3ccc(Cl)cc3)C[C@@H]2CO)c(F)c1 [Example 18, (1S,2S)-1-[3-(4-Chloro-phenyl)-ureido]-2-hydroxymethyl-cyclopropanecarboxylic acid (3-fluoro-2′-methanesulfonyl-biphenyl-4-yl)-amide]",21 nM
8,"COCCN(CC(=O)Nc1ccc(N2CCCCC2=O)cc1F)C(=O)Nc1ccc(Cl)cc1 [Example 29, 2-[3-(4-Chloro-phenyl)-1-(2-methoxy-ethyl)-ureido]-N-[2-fluoro-4-(2-oxo-piperidin-1-yl)-phenyl]-acetamide]",224 nM
9,"CS(=O)(=O)c1ccccc1-c1ccc(NC(=O)C2(NC(=O)Nc3ccc(Cl)cn3)CC2)c(F)c1 [Example 4, 1-[3-(5-Chloro-pyridin-2-yl)-ureido]-cyclopropanecarboxylic acid (3-fluoro-2′-methanesulfonyl-biphenyl-4-yl)-amide]",255 nM
10,CC(C)(NC(=O)Nc1ccc(Cl)cc1)C(=O)Nc1ccc(-c2ccccc2S(N)(=O)=O)cc1F [Example 9],44 nM
11,"COCCN(CC(=O)Nc1ccc(-c2ccccc2S(C)(=O)=O)cc1F)C(=O)Nc1ccc(Cl)cc1 [Example 24, 2-[3-(4-Chloro-phenyl)-1-(2-methoxy-ethyl)-ureido]-N-(3-fluoro-2′-methanesulfonyl-biphenyl-4-yl)-acetamide]",26 nM
12,"CS(=O)(=O)c1ccccc1-c1ccc(NC(=O)[C@@]2(NC(=O)Nc3ccc(Cl)cc3)C[C@@H]2CO)c(F)c1 [Example 20, (1R,2S)-1-[3-(4-Chloro-phenyl)-ureido]-2-hydroxymethyl-cyclopropanecarboxylic acid (3-fluoro-2′-methanesulfonyl-biphenyl-4-yl)-amide]",35 nM
13,"O=C(Nc1ccc(Cl)cc1)N[C@]1(C(=O)Nc2ccc(N3CCCCC3=O)cc2F)C[C@@H]1CO [Example 21, (1R,2S)-1-[3-(4-Chloro-phenyl)-ureido]-2-hydroxymethyl-cyclopropanecarboxylic acid [2-fluoro-4-(2-oxo-piperidin-1-yl)-phenyl]-amide]",140 nM
14,"NS(=O)(=O)c1ccccc1-c1ccc(NC(=O)C2(NC(=O)Nc3ccc(Cl)cc3)CC=CC2)c(F)c1 [Example 11, 1-[3-(4-Chloro-phenyl)-ureido]-cyclopent-3-enecarboxylic acid (3-fluoro-2′-sulfamoyl-biphenyl-4-yl)-amide]",66 nM
15,"CN(CC(=O)Nc1ccc(-c2ccccc2S(C)(=O)=O)cc1F)C(=O)Nc1ccc(Cl)cc1 [Example 12, 2-[3-(4-Chloro-phenyl)-1-methyl-ureido]-N-(3-fluoro-2′-methanesulfonyl-biphenyl-4-yl)-acetamide]",20 nM
16,"CS(=O)(=O)c1ccccc1-c1ccc(NC(=O)C2(NC(=O)Nc3ccc(Cl)cc3)CCN(C(=O)OCc3ccccc3)C2)c(F)c1 (stereo not shown) [Example 22, 3-[3-(4-Chloro-phenyl)-ureido]-3-(3-fluoro-2′-methanesulfonyl-biphenyl-4-ylcarbamoyl)-pyrrolidine-1-carboxylic acid benzyl ester]",175 nM
17,"CC(C)CN(CC(=O)Nc1ccc(-c2ccccc2S(C)(=O)=O)cc1F)C(=O)Nc1ccc(Cl)cc1 [Example 25, 2-[3-(4-Chloro-phenyl)-1-isobutyl-ureido]-N-(3-fluoro-2′-methanesulfonyl-biphenyl-4-yl)-acetamide]",105 nM
18,"NS(=O)(=O)c1ccccc1-c1ccc(NC(=O)C(CO)(CO)NC(=O)Nc2ccc(Cl)cc2)cc1 [Example 15, 2-[3-(4-Chloro-phenyl)-ureido]-3-hydroxy-2-hydroxymethyl-N-(2′-sulfamoyl-biphenyl-4-yl)-propionamide]",29 nM
19,"NS(=O)(=O)c1ccccc1-c1ccc(NC(=O)C2(NC(=O)Nc3ccc(Cl)cc3)CCOCC2)c(F)c1 [Example 16, 4-[3-(4-Chloro-phenyl)-ureido]-tetrahydro-pyran-4-carboxylic acid (3-fluoro-2′-sulfamoyl-biphenyl-4-yl)-amide]",252 nM

# Test system: not given
# Test: not given
# Conditions: models of arterial and venous thrombosis; cited from earlier work
row,Molecule,antithrombotic activity
1,B1,displays antithrombotic activity

# Reference: patent US20040167131A1, “Inhibitors of factor Xa and other serine proteases involved in the coagulation cascade” (Pfizer Inc., priority 2002, published 2004)
